Source: patent publication US6878388B1, “Vanadium compounds for treating proliferative cell disorders” (Parker Hughes Institute, priority 2000, dated 2005)
Like-named read-outs stand apart in the source and are kept apart here.

Tests used:
[1] = system: intracranial U87 glioblastoma; test: Nude mouse model of intracranial glioblastoma; type: in vivo, NCr nude mice
From the text: FIG. 2 illustrates the in vivo antitumor activity of [VO(SO4)(Me2-Phen)2] against intracranial U87 glioblastoma in nude mice. A representative survival curve of [VO(SO4)(Me2-Phen)2]-treated (n=8) and control (n=9) mice is shown.
The animal protocols used in this study were approved by the Parker Hughes Institute Institutional Animal Care and Use Committee (IACUC). Female CB.17 severe combined immuno-deficient (SCID) and NCr nude mice were obtained from Taconic (Germantown, N.Y.) and housed in a specific pathogen-free room located in a secure indoor facility with controlled temperature, humidity, and noise levels. Mice were housed in microisolater cages and fed with autoclaved rodent chow. Water was also autoclaved and supplemented with trimethoprim/sulfomethoxazol 3 days/week.
Nude mice were anesthetized with Avertin (2,2,2-tribromoethanol in tert-amyl alcohol; Aldrich Chemical Co., Milwaukee, Wis.) at a dose of 0.5 mg/g under aseptic conditions in a laminar flow hood. A small hole was drilled through the skull 2 mm to the right of the midline and 2 mm posterior to the bregma. U87 glioblastoma cells (4×10^5 cells in 10 μl of PBS) were intracranially implanted into the right side of the cerebral hemisphere of the mice using a Hamilton syringe fitted to a stereotaxic apparatus with a mouse adaptor (David Kopf Instruments, Tujunga, Calif.) as described earlier (34). Twenty-four hours after inoculation, mice were treated intraperitoneally with [VO(SO4)(Me2-Phen)2] (10 mg/kg/day, n=10) or vehicle (5% DMSO in PBS, n=11) for ten consecutive days. […] The grains were then fixed in formalin, processed for histopathology and the tumor volumes from histological sections were measured as described earlier (Haung et al., J. Biol Chem, 272; 2927-2935, 1997). the remaining mice were monitored twice a day for survival.
Following intracranial implantation of 4×10^5 U87 glioblastoma cells (in 10 μl of PBS) into the right cerebral hemispheres of NCr […] mice [VO(SO4)(Me2-Phen)2] […] The mice wee monitored twice a day for health status. […]

[2] = system: MDA-MB-231 breast cancer cells; test: In vitro adhesion assay to ECM proteins, MDA-MB-231; type: cell-based, human; conditions: 16 h pretreatment, mean ± SE of 3 experiments
Experimental: In vitro adhesion assays were used to evaluate the effects of [VO(SO4)(Me2-Phen)2] on the adhesive properties of U87 and MDA-MD-231 cells as described previously (Narla et al., Clin Cancer Res, 4: 2463-2471, 1998). The plates for the adhesion assays were pre-coated with the extracellular matrix (ECM) proteins laminin, fibronectin, vitronectin and type IV collagen (each at a final concentration of 1 μg/ml in PBS) overnight at 4° C. and dried. Exponentially-growing cells (as described in the previous Example) were incubated with [VO(SO4)(Me2-Phen)2] at concentrations ranging from 0.5 μM to 25 μM for 16 hours in a humidified 5% CO2 atmosphere. The cells were then detached from the flasks with 0.05% trypsin (Life Technologies), resuspended in medium, incubated at 37° C. for 2 hours to allow them to recover from the trypsinization stress and examined for their ability to adhere to the plates precoated with ECM proteins. Cells were centrifuged, washed twice with serum-free medium, counted and resuspended in serum-free medium at a final concentration of 2.5×10^5 cells/ml. The cell suspension was added to each well in aliquots of 100 μl and the cells were allowed to adhere for one hour at 37° C. in a humidified 5% CO2atmosphere. The non-adherent cells were removed by gently washing the cells with PBS. The adherent fraction was quantitated using MTT assays as previously described (Narla, Supra).
U87 glioblastoma and MDA-MD-231 breast cancer cells were preincubated with various concentrations of [VO(SO4)(Me2-Phen)2] and processed for adhesion assays. [VO(SO4)(Me2-Phen)2] inhibited adhesion of the U87 and MDA-MB-231 cells to extracellular matrix (ECM) proteins, Pretreatment of cells with [VO(SO4)(Me2-Phen)2] inhibited the adhesion of U87 glioblastoma and MDA-MB-231 breast cancer cells to laminin-, fibronectin-, vitronectin- and collagen-coated plates. The inhibition of glioblastoma cell adhesion was concentration-dependent with mean (±SE) IC50 values from 3 independent experiments shown in the table below.

Cc1ccnc2c1ccc1c(C)ccnc12.Cc1ccnc2c1ccc1c(C)ccnc12.O=S(=O)([O-])[O-].[O]=[V+2] [[VO(SO4)(Me2-Phen)2], bis(4,7-dimethyl-1,10-phenanthroline) sulfatooxovanadium (IV)]
mice remaining alive for >24 days ([1]; 10 mg/kg/day i.p. for ten consecutive days): over 60% | median survival time ([1]; 10 mg/kg/day i.p. for ten consecutive days, control 19.6±0.6 days, P=0.0002): 24.4 ± 0.8 days | average tumor volume, fold less than vehicle-treated control ([1]; 17 days after tumor cell inoculation, histological sections, two mice per group): approximately 2.9 fold | IC50 ([2]; MDA-MB-231, fibronectin-coated plates, read-out: IC50 inhibition of adhesion to fibronectin): 1 µM | IC50 ([2]; MDA-MB-231, laminin-coated plates, read-out: IC50 inhibition of adhesion to laminin): 1 ± 0.1 µM | IC50 ([2]; MDA-MB-231, type IV collagen-coated plates, read-out: IC50 inhibition of adhesion to collagen): 1.3 µM | IC50 ([2]; MDA-MB-231, vitronectin-coated plates, read-out: IC50 inhibition of adhesion to vitronectin): 1.1 ± 0.1 µM
